As a reminder, the IC50 is the midpoint of a concentration-inhibition curve. A higher IC50 goes with a need for much substance.

These results are taken from ChEMBL document CHEMBL1154559, “New bisindole alkaloids of the topsentin and hamacanthin classes from the Mediterranean marine sponge Rhaphisia lacazei” (J Nat Prod, 2000).

This test is described as follows: Cytotoxicity against human NSCLC-N6 cells by colorimetric assay. It counts as functional, cell-based.

Values after ≈ are worked out from the molar mass of the structure shown.

For `O=C(c1nc(-c2c[nH]c3cc(Br)ccc23)c[nH]1)c1c[nH]c2cc(O)ccc12` [BROMOTOPSENTIN], the IC50 came out at 6.3 µg/mL (≈ 15 µM).
Next, `O=C(c1nc(-c2c[nH]c3ccccc23)c[nH]1)c1c[nH]c2cc(O)ccc12` [TOPSENTIN]: 12 µg/mL (≈ 35.1 µM).
